This note sets out measurements from US20080262445A1, “Transdermal Delivery of Hydrophobic Bioactive Agents” (DERMATRENDS, INC., priority 2004, published 2008).

The structures appear in SMILES notation. Like-named read-outs stand apart in the source and are kept apart here.

The format of data set [1] is in vitro ADME. The note with it: human, pH 7.4. The method, then: An in vitro skin permeation study was conducted using one ondansetron transdermal patch. The formulations used to prepare these systems are listed in Table 1, which includes weight and percent weight of each component of the dried formulations. “PVPP’ refers to a commercially available polyvinyl polypyrrolidone powder, which was added in an amount sufficient to balance the liquid nature of other solubizing agents in order to maintain the physical integrity of the patch. Other suitable and generally inert powders that can be used will become apparent to those skilled in the art, given the present description. “Duratak” is a tradename and refers to a commercially available polyisobutylene adhesive liquid available from National Starch and Chemical.
Each formulation was coated on a release liner and dried in an oven at 65° C. for two hours to remove water and other solvents. […]
The in vitro permeation of ondansetron through human cadaver skin from these discs was performed using Franz diffusion cells with a diffusion area of 1 cm^2 and a receiver solution capacity of 8 ml. […] The receiver solution collected was analyzed by HPLC to determine the concentration of ondansetron. The cumulative amount of ondansetron that permeated across the human cadaver skin was calculated using the measured ondansetron concentrations in the receiver solutions, which were plotted versus time and shown in FIG. 1. […]

Data set [2] in a line: Final pH of the patch. The note with it: pH of the transdermal patch. The class given is physicochemical.

Regarding `Cc1nccn1CC1CCc2c(c3ccccc3n2C)C1=O` (stereo not drawn) [ondansetron, 1,2,3,9-tetrahydro-9-methyl-3-[(2-methyl-1H-imidazol-1-yl)methyl]-4H-carbazol-4-one], the figures for the “cumulative amount of ondansetron that permeated through the skin” value in data set [1] (24 h) and in data set [1] (51 h) were 0.26 mg/cm^2 and 0.51 mg/cm^2, respectively. Also, the “final patch pH” value in data set [2] is 4.7.
